The NIST ThermoML archive (doi:10.1016/j.fluid.2015.06.034)
± gives the expanded uncertainty stated by the source.

Assay: wn = mass fraction of the nth substance listed
Settings: Liquid, Vibrating tube method, w1 = 0.45

CN(CCO)CCO [N-methyldiethanolamine] + O
mass density (303.15 K): 1037.2 ± 5 kg/m3
mass density (323.15 K): 1024.8 ± 5 kg/m3
mass density (343.15 K): 1011.5 ± 5 kg/m3
mass density (363.15 K): 996.4 ± 5 kg/m3
